These results are taken from US20250332298A1, “PEPTIDE-COUPLED ALGINATE GELS COMPRISING RADIONUCLIDES” (BLUE WAVE THERAPEUTICS GMBH, priority 2021, published 2025).

Values joined by “and” are separate entries in the source; they are usually repeats but may differ in a detail not shown here. Identical values can stand only once.

Series [1] is described as follows: Binding efficiency of thorium-227 and its decay daughters to preformed alginate microspheres (calcium cross-linked). Type of series: physicochemical. The note with it: for Bound at 1 h, Bq: 227Th4+ solution in NaCl; for Bound at 1 h, Bq / Bound at 1 h, %: 1 h incubation; for Bound at 2 h, Bq / Bound at 2 h, %: 2 h incubation; for Bound at 1 h, % / Bound at 2 h, %: % of available radioactivity. The protocol: In this Experiment, binding of a tetravalent radionuclide cation to alginate microspheres was studied.
Calcium crosslinked, inhomogeneous gelled alginate microspheres were made in the same manner as shown in Example 5 above. The microspheres were washed three times using 0.9% NaCl solution, resuspended in 0.8% NaCl and incubated with a solution of ^227Th^4+. Of the available amount of radioactivity, approximately 30% bound to the pre-formed alginate microspheres (Table 3).

Series [2] is described as follows: Binding of radium-224 and decay daughters to calcium alginate microparticles and retention over 12 days. The note with it: for Day 0 particles directly after labelling, radioactivity: 30 mg microparticles, 30 min room temperature, washed, HPGe; for Day 1 radioactivity associated with particles: 24 hours after labelling; for Day 1 radioactivity associated with particles / Day 12 radioactivity associated with particles: room temperature, after washing with water; for Day 12 radioactivity associated with particles: 12 days after labelling; for Day 0 % bound radioactivity relative to available radioactivity: directly after labelling. The protocol: Calcium alginate was produced via the conversion of sodium alginate powder suspended in isopropyl alcohol by adding an aqueous solution of calcium chloride as exemplified in US 2011/0053886 incorporated herein.
A 30 mg sample of calcium alginate microparticles, having an average size distribution (DV50) of 13 μm, was resuspended first in 200 μl water, then 150 μl radium-224 solution was added followed by an additional 150 μl of water. The sample was vortex mixed then incubated at room temperature for 30 min. An aliquot of 500 μl water was added to the particle suspension. The sample was vortex mixed then centrifuged for 1 min at 6000 rpm. The supernatant was transferred to another Eppendorf tube labelled Wash 1. The particle sample was then resuspended in 1000 μl water, vortexed, then centrifuged. The supernatant was transferred to an Eppendorf tube labelled Wash 2. The wash with 1000 μl water was repeated and the supernatant collected to tube Wash 3. Samples were then analysed for radioactivity using a high purity germanium detector.
The sample was kept at room temperature and analysed again at day 1 (24 hours after labelling) and 12 days after labelling. Radioactivity was determined after first washing the particles with water.
This solution represents the available radioactivity, and radionuclides, added to calcium alginate microparticles. Following incubation and a wash to remove unbound radioactivity, the radioactivity associated with the alginate microparticles was again measured respective to each decay daughter radionuclide. The % bound radioactivity relative to the available radioactivity was calculated.
When the particles were washed on day 1 after labelling, and radioactivity determined (HPGe detector), in addition, the amount of 224-Ra radioactivity theoretically remaining associated with the alginate microparticles was calculated using an available radioactive decay calculator (http://www.radprocalculator.com).

In the case of `[211Bi]` [Bismuth-211], in series [1], the “Bound at 1 h, Bq” value is given as 10067 Bq; the “Bound at 2 h, Bq” value stood at 11154 Bq; the “Bound at 1 h, %” value is recorded as 90.2%; the “Bound at 2 h, %” value is recorded as 99.9%. Besides, the “Bound at 1 h, %” value in series [1] (listed as 211Bi) is 100%. Besides, the “Bound at 1 h, %” value in series [1] (listed as bismuth) amounted to 100%.
As for `[212Bi]` [Formulation 212-Bi, bismuth 212], in series [2], the “Day 0 particles directly after labelling, radioactivity” value (from here on “Day 0 particles directly”) is reported as 7640 Bq; the “Day 1 radioactivity associated with particles” value (shortened to “Day 1 radioactivity associated”) was found to be 7650 Bq; the “Day 12 radioactivity associated with particles” value (from here on “Day 12 radioactivity associated”) amounted to 910 Bq; the “Day 0 % bound radioactivity relative to available radioactivity” value is on record as 83.6%.
As for `[212Pb]` [Formulation 212-Pb, lead-212], in series [2], the “Day 0 particles directly” value is recorded as 8370 Bq; the “Day 1 radioactivity associated” value was determined as 7840 Bq; the “Day 12 radioactivity associated” value amounted to 1040 Bq.
Take `[224Ra]` [Formulation 224-Ra, radium-224]: in series [2], the “Day 0 particles directly” value was 8720 Bq and 8740 Bq; the “Day 1 radioactivity associated” value is reported as 7270 Bq; the “Day 12 radioactivity associated” value is reported as 913 Bq; the “Day 0 % bound radioactivity relative to available radioactivity” value was 94.9%. Besides, in series [2] (Day 1), the “Day 1 % radioactivity remaining bound relative to theoretical radioactivity following decay” value was found to be 100%. The “Day 12 % radioactivity remaining bound relative to theoretical radioactivity following decay” value in series [2] (Day 12) was 100% and 101%.
In the case of `[223Ra]` [Radium-223], in series [1], the “Bound at 1 h, Bq” value is given as 10512 Bq; the “Bound at 2 h, Bq” value was determined as 11201 Bq; the “Bound at 1 h, %” value was determined as 111.5%; the “Bound at 2 h, %” value was 118.8%. In addition, the “Bound at 1 h, %” value in series [1] (listed as 223Ra) is given as 100%. For the same compound, the “Bound at 1 h, %” value in series [1] (listed as radium) came out at 100%.
With `[227Th]` [Thorium-227], in series [1], the “Bound at 1 h, Bq” value is recorded as 24679 Bq; the “Bound at 2 h, Bq” value is 30647 Bq; the “Bound at 1 h, %” value was found to be 30.4%; the “Bound at 2 h, %” value is 37.7%. Besides, the “Bound at 1 h, %” value in series [1] (listed as 227Th) is listed as “approximately 30%”. The “Bound at 1 h, %” value in series [1] (listed as thorium-227) is “approximately 30%”.
